According to patent publication US12173018B2, “Penicillin-binding protein inhibitors” (priority 2018, dated 2024):
Converted amounts (≈) assume the structure as drawn. Read-outs that look alike come from different tables or passages of the source.

Key:
E. coli ATCC 25922 = test: Broth microdilution MIC, E. coli ATCC 25922; assay type: cell-based; settings: Escherichia coli, ATCC25922; E. coli ATCC 25922, broth microdilution; read-out: MIC E. coli 25922
Method in brief: (§1)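 CLSI broth microdilution in cation-supplemented Mueller-Hinton broth; 2-fold compound dilutions inoculated at 5×10^5 CFU/mL from a 3-5 h log-phase culture. Plates incubated 16-20 hours at 37° C; MIC read visually as lowest concentration with no growth.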

[1] = tested on: N. gonorrhoeae ATCC 49226; test: Liquid broth MIC, N. gonorrhoeae ATCC 49226; assay type: cell-based; settings: Neisseria gonorrhoeae, ATCC49226; N. gonorrhoeae ATCC 49226, liquid broth; read-out: Minimum Inhibitory Concentration, N. gonorrhoeae ATCC 49226
Experimental: (§2) Additional antibacterial testing of the series was performed in wild-type reference strains of N. gonorrhoeae (ATCC 49226, FA1090, WHO F and FA19). Liquid broth-based assays were used for antibacterial testing of PBP inhibitors in Neisseria gonorrhoeae. Briefly, cryo-preserved bacterial cultures of clinical strains are streaked for isolation on GC Base agar (BD #228950 at 36 g/L autoclaved at 121° C. for 20 minutes to sterilize) with 1% Kellogg's supplement (40 g glucose, 0.5 g glutamine, 0.05 g ferric nitrate and 2 mg cocarboxylase per 100 mL deionized water filter sterilized through 0.2 μm syringe filters). Following incubation at 36° C. and 5% CO2 to allow growth of colonies, strains are aseptically sub-cultured from original agar plate onto 3 agar plates per strain 24 hours before inoculum preparation. 2-fold serial dilutions of test compounds are conducted in a 96 well plate with a final volume of 150 μL per well at 4/3-fold the final desired concentration. For preparation of assay inoculum, a direct suspension is prepared by aseptically swabbing all colonies from sub-cultured agar plates into culture tubes containing 2 mL of fresh GC broth with […]. After the dilution plates are set up, direct suspensions are then diluted in a cuvette containing GC broth (15 g proteose peptone 43, 1 g corn starch, 4 g dipotassium phosphate, 1 g monopotassium phosphate and 5 g sodium chloride per liter of deionized water are mixed on a stir plate for 20 minutes, pH adjusted to 7.2+/−0.2 pH units with 1 N HCl, centrifuged at 10,000×g for 20 minutes to pellet undissolved corn starch and then autoclaved at 121° C. for 20 minutes to sterilize) and the optical density is measured at 600 nm. Inocula are diluted such that 50 μL of this culture in […] results in a starting bacterial concentration of 5×10^5 CFU/mL when added to the dilution plates. The plates are incubated 40-42 hours at 36° C. and 5% CO2. The MIC is read visually as the lowest concentration well with no bacterial growth.

E. coli AG100A = test: microbe, parasite or virus in culture; assay type: cell-based; settings: Escherichia coli, read-out: MIC E. coli AG100A
Method in brief: as §1

E. coli 901C = test: microbe, parasite or virus in culture; assay type: cell-based; settings: Escherichia coli; hyper-permeable E. coli 901C, broth microdilution; read-out: MIC E. coli 901C
Method in brief: as §1

K. pneumoniae UMM = test: microbe, parasite or virus in culture; assay type: cell-based; settings: Klebsiella pneumoniae; K. pneumoniae UMM producing SHV-5 and KPC-2; read-out: MIC K. pneumoniae UMM
Method in brief: as §1

N. gonorrhoeae WHO F = test: Liquid broth MIC, N. gonorrhoeae WHO F; assay type: cell-based; settings: Neisseria gonorrhoeae; N. gonorrhoeae WHO F, liquid broth; read-out: Minimum Inhibitory Concentration, N. gonorrhoeae WHO F
Experimental: as §2

E. coli AG100 = test: Broth microdilution MIC, E. coli AG100 (wild-type parent); assay type: cell-based; settings: Escherichia coli; wild-type parent E. coli AG100, broth microdilution; read-out: MIC E. coli AG100
Method in brief: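 Starting inoculum of 5×10^5 CFU/mL, from colonies grown 3-5 h in Mueller-Hinton broth with divalent cations, added to two-fold compound dilution series.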

N. gonorrhoeae FA1090 = test: Liquid broth MIC, N. gonorrhoeae FA1090; assay type: cell-based; settings: Neisseria gonorrhoeae; N. gonorrhoeae FA1090, liquid broth; read-out: Minimum Inhibitory Concentration, N. gonorrhoeae FA1090
Experimental: as §2

N. gonorrhoeae FA19 = test: Liquid broth MIC, N. gonorrhoeae FA19; assay type: cell-based; settings: Neisseria gonorrhoeae; N. gonorrhoeae FA19, liquid broth; read-out: Minimum Inhibitory Concentration, N. gonorrhoeae FA19
Experimental: as §2

E. coli PBP3 = E. coli PBP3 (Escherichia coli (strain K12), UniProt P0AD68); test: E. coli PBP3 Bocillin-FL fluorescence polarization competition binding assay
Method in brief: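 This was a fluorescence polarization competition with fluorescent penicillin Bocillin-FL (0.1 μM final), read at 490/520 nm for 60 min immediately after its addition. The buffer was Hepes pH 8.0 with 300 mM NaCl and 5% glycerol, containing 1.5 μM PBP and test inhibitor up to 1000 μM. Potency is expressed as EC50 for reducing probe binding.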

[2] = tested on: engineered strain of Escherichia coli harboring CTX-M15; test: microbe, parasite or virus in culture; assay type: cell-based; settings: Escherichia coli, read-out: Microbiological Activity (MIC in mg/L), E. coli DH5α/pLBII-CTX-M15, engineered strain producing CTX-M15
Experimental: Briefly, cryo-preserved bacterial cultures of challenge strains are streaked for isolation on appropriate agar medium, in this case Mueller Hinton II agar. Following incubation to allow growth of the colonies, plates are sealed with parafilm and stored refrigerated for up to two weeks. For preparation of assay inoculum and to ensure low variability, at least 5 colonies are picked from the agar plates with an inoculating loop and aseptically transferred to a culture tube containing 3 mL of Mueller-Hinton Broth (supplemented with divalent cations to required levels based on Manufacturers' certification). The broth culture is grown for 3-5 hours at 37° C. with shaking at 200 rpm. Meanwhile, 2-fold serial dilutions of test compounds are conducted in a 96 well plate with a final volume of 75 μL per well at 2-fold the final desired concentration. After the dilution plates are set up the growing cultures are then diluted in a cuvette containing MH II broth and the optical density is measured at 600 nm. The Inoculum is diluted such that 75 μL of this culture in Mueller-Hinton Broth results in a starting bacterial concentration of 5×10^5 CFU/mL when added to the dilution plates. The plates are incubated for 16-20 hours at 37° C. The MIC values are read visually as the lowest concentration well with no bacterial growth.
To determine if test compounds were affected by CTX-M15, the most abundant extended spectrum […] in clinical settings worldwide, the inhibition of the growth of an engineered strain of Escherichia coli harboring CTX-M15 was tested. This strain was constructed by cloning the gene encoding CTX-M15 into the NdeI and BamHI restriction endonuclease sites of plasmid pLBII, placing the gene(s) under the control of the Lac promoter. The constructed expression plasmid for CTX-M15 was used to transform competent E. coli DH5α cells to make the engineered strain, including an empty pLBII vector control strain. The classic cell based broth microdilution MIC assay was employed as described above with the addition of control antibiotics, known to be degraded by β-lactamases (Ceftazidime, piperacillin and piperacillin+tazobactam).

[3] = fluorescence polarization competition binding with Bocillin-FL, read-out: E. coli K12 PBP3 Potency

Sequence of E. coli PBP3 (P0AD68 whole entry): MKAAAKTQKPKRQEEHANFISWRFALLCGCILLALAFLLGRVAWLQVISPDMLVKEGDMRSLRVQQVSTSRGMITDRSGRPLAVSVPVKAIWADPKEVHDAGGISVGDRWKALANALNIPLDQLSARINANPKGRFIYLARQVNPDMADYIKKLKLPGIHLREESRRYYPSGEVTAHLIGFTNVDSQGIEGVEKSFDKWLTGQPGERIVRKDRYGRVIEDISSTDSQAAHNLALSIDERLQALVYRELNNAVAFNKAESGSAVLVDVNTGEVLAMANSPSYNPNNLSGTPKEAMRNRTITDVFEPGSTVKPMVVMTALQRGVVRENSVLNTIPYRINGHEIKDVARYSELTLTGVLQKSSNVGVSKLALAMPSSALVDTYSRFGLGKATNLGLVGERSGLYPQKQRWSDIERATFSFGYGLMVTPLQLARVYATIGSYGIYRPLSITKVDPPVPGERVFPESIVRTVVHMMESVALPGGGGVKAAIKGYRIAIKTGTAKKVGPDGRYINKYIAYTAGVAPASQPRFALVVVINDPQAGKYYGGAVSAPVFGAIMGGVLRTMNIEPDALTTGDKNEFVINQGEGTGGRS

| SMILES | MIC [1] [µg/mL] | MIC (N. gonorrhoeae WHO F) [µg/mL] | MIC (N. gonorrhoeae FA1090) [µg/mL] | MIC (N. gonorrhoeae FA19) [µg/mL] | EC50 (E. coli PBP3; [3]) [µM] | MIC [2] [mg/L] | EC50 (E. coli PBP3) [µM] | further results |
| --- | --- | --- | --- | --- | --- | --- | --- | --- |
| CCN1CCN(C(=O)N[C@@H](C(=O)N[C@H]2Cc3cccc(C(=O)O)c3OB2O)c2ccc(O)c(O)c2)C(=O)C1=O [Example 39, (R)-3-((R)-2-(3,4-dihydroxyphenyl)-2-(4-ethyl-2,3-dioxopiperazine-1-carboxamido)acetamido)-2-hydroxy-3,4-dihydro-2H-benzo[e][1,2]oxaborinine-8-carboxylic acid] | 1 to 2 (≈ 1.85 to 3.7 µM) | 0.25 to 0.5 (≈ 0.463 to 0.925 µM) | < 0.125 | 1 to 2 (≈ 1.85 to 3.7 µM) | – | – | – | MIC (E. coli ATCC 25922): 8 to 16 µg/mL; MIC (E. coli AG100A): 2 to 4 µg/mL; MIC (E. coli 901C): 0.5 to 1 µg/mL; MIC (K. pneumoniae UMM): 8 to 16 µg/mL; MIC (E. coli AG100): 8 to 16 µg/mL |
| CCN1CCN(C(=O)N[C@H](CNS(=O)(=O)C(F)(F)F)C(=O)N[C@H]2Cc3cccc(C(=O)O)c3OB2O)C(=O)C1=O [Example 75, (R)-3-((R)-2-(4-ethyl-2,3-dioxopiperazine-1-carboxamido)-3-((trifluoromethyl)sulfonamido)propanamido)-2-hydroxy-3,4-dihydro-2H-benzo[e][1,2]oxaborinine-8-carboxylic acid] | – | – | – | – | > 500 | 128 to 256 (≈ 216 to 431 µM) | – | – |
| CCN1CCN(C(=O)N[C@H](CNS(C)(=O)=O)C(=O)N[C@H]2Cc3cccc(C(=O)O)c3OB2O)C(=O)C1=O [Example 83, (R)-3-((R)-2-(4-ethyl-2,3-dioxopiperazine-1-carboxamido)-3-(methylsulfonamido)propanamido)-2-hydroxy-3,4-dihydro-2H-benzo[e][1,2]oxaborinine-8-carboxylic acid] | – | – | – | – | > 500 | 32 to 64 (≈ 59.3 to 119 µM) | – | – |
| C[C@@H](O)[C@@H](NC(=O)N1CCN(CCF)C(=O)C1=O)C(=O)N[C@H]1Cc2cc(O)c(O)c(C(=O)O)c2OB1O [Example 94, (R)-3-((2R,3R)-2-(4-(2-fluoroethyl)-2,3-dioxopiperazine-1-carboxamido)-3-hydroxybutanamido)-2,6,7-trihydroxy-3,4-dihydro-2H-benzo[e][1,2]oxaborinine-8-carboxylic acid] | – | – | – | – | > 500 | 128 to 256 (≈ 243 to 486 µM) | – | – |
| CCN1CCN(C(=O)N[C@@H](C(=O)N[C@H]2Cc3cc(O)c(O)c(C(=O)O)c3OB2O)[C@@H](C)O)C(=O)C1=O [Example 95, (R)-3-((2R,3R)-2-(4-ethyl-2,3-dioxopiperazine-1-carboxamido)-3-hydroxybutanamido)-2,6,7-trihydroxy-3,4-dihydro-2H-benzo[e][1,2]oxaborinine-8-carboxylic acid] | – | – | – | – | > 500 | 128 to 256 (≈ 252 to 504 µM) | – | – |
| CCN1CCN(C(=O)N[C@@H](C(=O)N[C@H]2Cc3cc(O)c(O)c(C(=O)O)c3OB2O)[C@H](C)O)C(=O)C1=O [Example 96, (R)-3-((2R,3S)-2-(4-ethyl-2,3-dioxopiperazine-1-carboxamido)-3-hydroxybutanamido)-2,6,7-trihydroxy-3,4-dihydro-2H-benzo[e][1,2]oxaborinine-8-carboxylic acid] | – | – | – | – | > 500 | 128 to 256 (≈ 252 to 504 µM) | – | – |
| CCN1CCN(C(=O)N[C@@](C)(C(=O)N[C@H]2Cc3cccc(C(=O)O)c3OB2O)c2csc(N)n2)C(=O)C1=O [Example 97, (R)-3-((R)-2-(2-aminothiazol-4-yl)-2-(4-ethyl-2,3-dioxopiperazine-1-carboxamido)propanamido)-2-hydroxy-3,4-dihydro-2H-benzo[e][1,2]oxaborinine-8-carboxylic acid] | – | – | – | – | > 500 | 128 to 256 (≈ 235 to 470 µM) | – | – |
| CCN1CCN(C(=O)NC(C(=O)N[C@H]2Cc3cccc(C(=O)O)c3OB2O)c2ccsc2)C(=O)C1=O (stereo partly drawn) [Example 137, (3R)-3-(2-(4-ethyl-2,3-dioxopiperazine-1-carboxamido)-2-(thiophen-3-yl)acetamido)-2-hydroxy-3,4-dihydro-2H-benzo[e][1,2]oxaborinine-8-carboxylic acid] | 1 to 2 (≈ 1.94 to 3.89 µM) | < 0.125 | < 0.125 | 4 to 8 (≈ 7.78 to 15.6 µM) | – | – | 30 to 500 | – |
| CCN1CCN(C(=O)NC(C(=O)N[C@H]2Cc3ccc(F)c(C(=O)O)c3OB2O)c2cnc(N)s2)C(=O)C1=O (stereo partly drawn) [Example 152, (3R)-3-(2-(2-aminothiazol-5-yl)-2-(4-ethyl-2,3-dioxopiperazine-1-carboxamido)acetamido)-7-fluoro-2-hydroxy-3,4-dihydro-2H-benzo[e][1,2]oxaborinine-8-carboxylic acid] | 1 to 2 (≈ 1.82 to 3.65 µM) | 0.25 to 0.5 (≈ 0.456 to 0.912 µM) | 0.25 to 0.5 (≈ 0.456 to 0.912 µM) | 1 to 2 (≈ 1.82 to 3.65 µM) | – | – | 30 to 500 | – |
| Nc1ncc(C(NC(=O)N2CCN(CCF)C(=O)C2=O)C(=O)N[C@H]2Cc3ccc(F)c(C(=O)O)c3OB2O)s1 (stereo partly drawn) [Example 153, (3R)-3-(2-(2-aminothiazol-5-yl)-2-(4-(2-fluoroethyl)-2,3-dioxopiperazine-1-carboxamido)acetamido)-7-fluoro-2-hydroxy-3,4-dihydro-2H-benzo[e][1,2]oxaborinine-8-carboxylic acid] | 1 to 2 (≈ 1.77 to 3.53 µM) | 0.25 to 0.5 (≈ 0.441 to 0.883 µM) | 0.25 to 0.5 (≈ 0.441 to 0.883 µM) | 1 to 2 (≈ 1.77 to 3.53 µM) | – | – | 30 to 500 | – |
| CCN1CCN(C(=O)NC(C(=O)N[C@H]2Cc3ccc(Cl)c(C(=O)O)c3OB2O)c2csc(N)n2)C(=O)C1=O (stereo partly drawn) [Example 215, (3R)-3-(2-(2-aminothiazol-4-yl)-2-(4-ethyl-2,3-dioxopiperazine-1-carboxamido)acetamido)-7-chloro-2-hydroxy-3,4-dihydro-2H-benzo[e][1,2]oxaborinine-8-carboxylic acid] | 4 to 8 (≈ 7.08 to 14.2 µM) | 0.25 to 0.5 (≈ 0.443 to 0.885 µM) | 1 to 2 (≈ 1.77 to 3.54 µM) | 4 to 8 (≈ 7.08 to 14.2 µM) | – | – | 30 to 500 | – |
